# Non-standard residues stand in square brackets, D forms with d. Residues, ends and D or L forms follow the SMILES beside them. *: point of attachment. 1Nal = N[C@@H](Cc1cccc2ccccc12)C(=O)O; d2Nal = N[C@H](Cc1ccc2ccccc2c1)C(=O)O; Benzoyl(4-F) = O=C(c1ccc(F)cc1)*; d2Thi = N[C@H](Cc1cccs1)C(=O)O; Propanoyl(2-F) = CC(F)C(=O)*; Dap = NC[C@H](N)C(=O)O; Aib = CC(C)(N)C(=O)O; Inp = O=C(O)C1CCNCC1
# Target: T1, GHS-R1a (Homo sapiens, UniProt Q92847)
# T1 construct: expressed in transfected cells; host or cells: HEK293
# Assay: Receptor-ligand competitive binding assay, HEK293/GHS-R1a cells with [125I]ghrelin as radioligand
# Conditions: not given
# Description: Receptor-Ligand Binding Assay
# Competitive binding assays were run at the Lawson Health Research Institute at St. Joseph's Health Care in London. […] To begin with, a fresh solution of binding buffer (50 ml) was made up by adding HEPES (0.3 g, 25 mM), MgCl2 (0.051 g, 5 mM), CaCl2 (7.4×10^−3 g, 1 mM), EDTA (0.015 g, 2.5 mM) and BSA (0.2 g, 0.4%) to distilled H2O. The resultant solution was mixed over gentle heat. The pH was then adjusted to 7.4 and the solution filtered. Two miniature complete protease inhibitor tablets were then added and the final buffer solution kept on ice.
# After the buffer had been made, assay tubes were labelled and kept on ice during the setup. To assay tubes 1-21, 25-27 and 28-30 was added binding buffer (200 μl, 230 μl and 300 μl respectively). No buffer was added to tubes 22-24. An aliquot of frozen cells was thawed to room temperature, centrifuged (3000×g, 10 mins, room temperature) and the subsequent cell pellet re-suspended in binding buffer (2 ml) and placed on ice. Cells (50 μl) were then added to assay tubes 1-21 and 25-27. Cold peptide was then prepared. This was carried out by adding stock peptide (20 μl) to binding buffer (180 μl) to make a peptide solution of 10^−4M concentration. Binding buffer (180 μl) was then added to assay tubes labelled 10^−5 to 10^−11. A series of dilutions was then made in order to acquire 10^−5 to 10^−11M concentrations. Cold peptide (30 μl) was then added to the corresponding assay tubes in triplicate.
# All assay tubes were then vortexed, capped and immediately agitated (550 rpm, 20 mins, 37° C.). After 20 minutes, tubes 1-21 and 25-27 were spun in a large centrifuge (2800 rpm, 2 mins, 4° C.). The solution in all of the tubes was then transferred to Eppendorf tubes (0.5 ml), further binding buffer added (200 μl), the solutions mixed by pipetting and transferred to 0.5 ml tubes. The tubes were then spun again (13 000×g, 5 mins, 4° C.) and placed on ice. The supernatant was removed and the cell pellet rinsed with ice-cold Tris-HCl (200 μl, 50 mM, pH 7.4) and the tubes mixed by inversion. Tubes were spun a final time (13,000×g, 5 mins, 4° C.), cooled on ice and supernatant removed. The tubes were then placed in 12×75 mm assay tubes and counted using a gamma counter (see protocol 3). The binding assay may be summarized as follows:
# Competitive binding assays were run on the compounds of Table 2 as described in Example 1. The formulas of the compounds of Table 2 are illustrated in FIGS. 49 and 50.
# T1 sequence (Q92847 whole entry): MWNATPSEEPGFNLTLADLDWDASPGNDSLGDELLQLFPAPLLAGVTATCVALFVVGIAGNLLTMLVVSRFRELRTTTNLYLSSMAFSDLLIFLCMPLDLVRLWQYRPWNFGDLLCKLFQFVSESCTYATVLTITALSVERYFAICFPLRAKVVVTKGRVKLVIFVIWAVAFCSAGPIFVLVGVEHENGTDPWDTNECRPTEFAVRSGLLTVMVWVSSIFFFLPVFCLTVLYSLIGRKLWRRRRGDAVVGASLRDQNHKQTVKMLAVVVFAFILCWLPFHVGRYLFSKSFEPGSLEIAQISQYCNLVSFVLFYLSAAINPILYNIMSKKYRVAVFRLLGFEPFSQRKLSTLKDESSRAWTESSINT
row,SMILES,IC50 [nM]
1,"NC(=O)[C@H](CCCCNC(=O)c1ccc(F)cc1)NC(=O)[C@H](Cc1ccccc1)NC(=O)[C@@H](Cc1ccc2ccccc2c1)NC(=O)[C@@H](Cc1ccc2ccccc2c1)NC(=O)C1CCNCC1 [Compound 4-FB-G-7039, H-Inp-D-2-Nal-D-2-Nal-Phe-Lys(4-FB)-NH2] (H-[Inp][d2Nal][d2Nal]FK(Benzoyl(4-F))-NH2)",242
2,"C[C@H](NC(=O)[C@@H](Cc1c[nH]c2ccccc12)NC(=O)[C@@H](N)Cc1c[nH]cn1)C(=O)N[C@@H](Cc1c[nH]c2ccccc12)C(=O)N[C@H](Cc1ccccc1)C(=O)N[C@@H](CCCCNC(=O)c1ccc(F)cc1)C(N)=O [Compound 4-FB-GHRP-6, H-His-D-Trp-Ala-Trp-D-Phe-Lys(4-FB)-NH2] (H-H[dW]AW[dF]K(Benzoyl(4-F))-NH2)",384
3,"C[C@H](NC(=O)[C@@H](Cc1c[nH]c2ccccc12)NC(=O)[C@@H](N)Cc1c[nH]cn1)C(=O)N[C@@H](Cc1c[nH]c2ccccc12)C(=O)N[C@H](Cc1ccccc1)C(=O)N[C@@H](CNC(=O)c1ccc(F)cc1)C(N)=O [Dpr-4-FB-GHRP-6, H-His-D-Trp-Ala-Trp-D-Phe-Dpr(4-FB)-NH2] (H-H[dW]AW[dF][Dap](Benzoyl(4-F))-NH2)",1060
4,"C[C@H](N)C(=O)N[C@@H](Cc1c[nH]cn1)C(=O)N[C@H](Cc1ccc2ccccc2c1)C(=O)N[C@@H](C)C(=O)N[C@@H](Cc1c[nH]c2ccccc12)C(=O)N[C@H](Cc1ccccc1)C(=O)N[C@@H](CCCCN)C(N)=O [GHRP-1, H-Ala-His-D-2-Nal-Ala-Trp-D-Phe-Lys-NH2, reference compound] (H-AH[d2Nal]AW[dF]K-NH2)",181
5,"C[C@H](NC(=O)[C@@H](Cc1ccc2ccccc2c1)NC(=O)[C@@H](C)N)C(=O)N[C@@H](Cc1c[nH]c2ccccc12)C(=O)N[C@H](Cc1ccccc1)C(=O)N[C@@H](CCCCN)C(N)=O [GHRP-2, H-D-Ala-D-2-Nal-Ala-Trp-D-Phe-Lys-NH2, reference compound] (H-[dA][d2Nal]AW[dF]K-NH2)",449
6,"NC(=O)[C@H](CCCCNC(=O)c1ccc(F)cc1)NC(=O)[C@@H](Cc1ccccc1)NC(=O)[C@@H](Cc1ccc2ccccc2c1)NC(=O)[C@H](Cc1c[nH]cn1)NC(=O)C1CCNCC1 [Inp-4-FB-Ipamorelin, H-Inp-His-D-2-Nal-D-Phe-Lys(4-FB)-NH2] (H-[Inp]H[d2Nal][dF]K(Benzoyl(4-F))-NH2)",688
7,"NC(=O)[C@H](CCCCNC(=O)c1ccc(F)cc1)NC(=O)[C@@H](Cc1cccs1)NC(=O)[C@@H](Cc1ccc2ccccc2c1)NC(=O)[C@H](Cc1c[nH]cn1)NC(=O)C1CCNCC1 [Inp-Thi-4-FB-Ipamorelin, H-Inp-His-D-2-Nal-D-2-Thi-Lys(4-FB)-NH2] (H-[Inp]H[d2Nal][d2Thi]K(Benzoyl(4-F))-NH2)",1170
8,"CC(C)(N)C(=O)N[C@@H](Cc1c[nH]cn1)C(=O)N[C@H](Cc1ccc2ccccc2c1)C(=O)N[C@H](Cc1ccccc1)C(=O)N[C@@H](CCCCN)C(N)=O [Ipamorelin, H-Aib-His-D-2-Nal-D-Phe-Lys-NH2, reference compound] (H-[Aib]H[d2Nal][dF]K-NH2)",483
9,"NC(=O)[C@H](CCCCNC(=O)c1ccc(F)cc1)NC(=O)[C@@H](Cc1ccc2ccccc2c1)NC(=O)[C@@H](Cc1ccc2ccccc2c1)NC(=O)[C@H](Cc1c[nH]cn1)NC(=O)C1CCNCC1 [MMF-01-140-H, H-Inp-His-D-2-Nal-D-2-Nal-Lys(4-FB)-NH2] (H-[Inp]H[d2Nal][d2Nal]K(Benzoyl(4-F))-NH2)",1920

# Continued, values first:
row,IC50 [nM],SMILES
1,170,"CC(C)(N)C(=O)N[C@@H](Cc1c[nH]cn1)C(=O)N[C@H](Cc1ccc2ccccc2c1)C(=O)N[C@H](Cc1ccccc1)C(=O)N[C@@H](CCCCNC(=O)c1ccc(F)cc1)C(N)=O [4-FB-Ipamorelin, H-Aib-His-D-2-Nal-D-Phe-Lys(4-FB)-NH2] (H-[Aib]H[d2Nal][dF]K(Benzoyl(4-F))-NH2)"
2,161,"CC(C)(N)C(=O)N[C@@H](Cc1c[nH]cn1)C(=O)N[C@H](Cc1ccc2ccccc2c1)C(=O)N[C@H](Cc1cccs1)C(=O)N[C@@H](CCCCNC(=O)c1ccc(F)cc1)C(N)=O [Thi-4-FB-Ipamorelin, H-Aib-His-D-2-Nal-D-2-Thi-Lys(4-FB)-NH2] (H-[Aib]H[d2Nal][d2Thi]K(Benzoyl(4-F))-NH2)"
3,68.8,"NC(=O)[C@H](CCCCNC(=O)c1ccc(F)cc1)NC(=O)[C@H](Cc1cccc2ccccc12)NC(=O)[C@@H](Cc1ccc2ccccc2c1)NC(=O)[C@@H](Cc1ccc2ccccc2c1)NC(=O)C1CCNCC1 [MMF-01-115-H, H-Inp-D-2-Nal-D-2-Nal-1-Nal-Lys(4-FB)-NH2] (H-[Inp][d2Nal][d2Nal][1Nal]K(Benzoyl(4-F))-NH2)"
4,62.9,"CC(F)C(=O)NCCCC[C@H](NC(=O)[C@H](Cc1ccccc1)NC(=O)[C@H](CO)NC(=O)[C@@H](Cc1ccc2ccccc2c1)NC(=O)[C@@H](Cc1ccc2ccccc2c1)NC(=O)C1CCNCC1)C(N)=O (stereo partly drawn) [TL-MF-5-2FP, H-Inp-(D-2-Nal)2-Ser-Phe-Lys(2-FP)-NH2] (H-[Inp][d2Nal][d2Nal]SFK(Propanoyl(2-F))-NH2)"
5,60.3,"CC(F)C(=O)NCCCC[C@H](NC(=O)[C@H](CO)NC(=O)[C@@H](Cc1ccc2ccccc2c1)NC(=O)[C@@H](Cc1ccc2ccccc2c1)NC(=O)C1CCNCC1)C(N)=O (stereo partly drawn) [TL-MF-2-2FP, H-Inp-(D-2-Nal)2-Ser-Lys(2-FP)-NH2] (H-[Inp][d2Nal][d2Nal]SK(Propanoyl(2-F))-NH2)"
6,27.6,"NCCCC[C@H](NC(=O)[C@H](Cc1cccc2ccccc12)NC(=O)[C@@H](Cc1ccc2ccccc2c1)NC(=O)[C@@H](Cc1ccc2ccccc2c1)NC(=O)C1CCNCC1)C(N)=O [MMF-01-113-G, H-Inp-D-2-Nal-D-2-Nal-1-Nal-Lys-NH2] (H-[Inp][d2Nal][d2Nal][1Nal]K-NH2)"
7,5.21,"NCCCC[C@H](NC(=O)[C@H](Cc1ccccc1)NC(=O)[C@@H](Cc1ccc2ccccc2c1)NC(=O)[C@@H](Cc1ccc2ccccc2c1)NC(=O)C1CCNCC1)C(N)=O [Compound G-7039, H-Inp-D-2-Nal-D-2-Nal-Phe-Lys-NH2, reference compound] (H-[Inp][d2Nal][d2Nal]FK-NH2)"
8,4.35,"CC(F)C(=O)NCCCC[C@H](NC(=O)[C@H](CO)NC(=O)[C@H](Cc1ccccc1)NC(=O)[C@@H](Cc1ccc2ccccc2c1)NC(=O)[C@@H](Cc1ccc2ccccc2c1)NC(=O)C1CCNCC1)C(N)=O (stereo partly drawn) [TL-MF-4-2FP, H-Inp-(D-2-Nal)2-Phe-Ser-Lys(2-FP)-NH2] (H-[Inp][d2Nal][d2Nal]FSK(Propanoyl(2-F))-NH2)"
9,0.283,"CC(F)C(=O)NCCCC[C@H](NC(=O)[C@H](Cc1ccc(O)cc1)NC(=O)[C@@H](Cc1ccc2ccccc2c1)NC(=O)[C@@H](Cc1ccc2ccccc2c1)NC(=O)C1CCNCC1)C(N)=O (stereo partly drawn) [TL-MF-3-2FP, H-Inp-D-2-Nal-D-2-Nal-Tyr-Lys(2-FP)-NH2] (H-[Inp][d2Nal][d2Nal]YK(Propanoyl(2-F))-NH2)"

# Target: Human recombinant ghrelin receptor (Homo sapiens, UniProt Q92847)
# Assay: Calcium flux dose-response assay (FLIPR TETRA, EMD Millipore GPCRProfiler)
# Type: cell-based
# Conditions: FIGS. 51 and 52, Example 3
# Description: Another in vitro assay performed on the 4-fluorobenzoyl agonist [1-Nal^4,Lys^5(4-FB)]G-7039 and the [Lys^5(2-FP)]G-7039 agonist was a calcium flux dose-response assay. […] In this particular case, the biological effect of the peptidomimetic [1-Nal^4,Lys^5(4-FB)]G-7039 and the peptidomimetic [Lys^5(2-FP)]G-7039 is the release of intracellular calcium ions, a process which is detected by fluorescence using a […] instrument.
# If the compound remained soluble 15 minutes after addition, samples were shipped to the EMD Millipore Corporation (15 Research Park Drive, St. Charles, Mo. 63304, USA). […] The agonist assay was performed for a total of 180 seconds. Each assay and assay concentration was performed in duplicate. The data acquired is presented in FIG. 51 ([1-Nal^4,Lys^5(4-FB)]G-7039) and FIG. 52 (Lys^5(2-FP)]G-7039).
# Sequence of Human recombinant ghrelin receptor (Q92847 whole entry): as above
row,SMILES,EC50 value compared with ghrelin
1,"CC(F)C(=O)NCCCC[C@H](NC(=O)[C@H](Cc1ccccc1)NC(=O)[C@@H](Cc1ccc2ccccc2c1)NC(=O)[C@@H](Cc1ccc2ccccc2c1)NC(=O)C1CCNCC1)C(N)=O (stereo partly drawn) [Compound 2-FP-G-7039, H-Inp-D-2-Nal-D-2-Nal-Phe-Lys(2-FP)-NH2] (H-[Inp][d2Nal][d2Nal]FK(Propanoyl(2-F))-NH2)",below that of ghrelin
2,"NC(=O)[C@H](CCCCNC(=O)c1ccc(F)cc1)NC(=O)[C@H](Cc1cccc2ccccc12)NC(=O)[C@@H](Cc1ccc2ccccc2c1)NC(=O)[C@@H](Cc1ccc2ccccc2c1)NC(=O)C1CCNCC1 [MMF-01-115-H, H-Inp-D-2-Nal-D-2-Nal-1-Nal-Lys(4-FB)-NH2] (H-[Inp][d2Nal][d2Nal][1Nal]K(Benzoyl(4-F))-NH2)",below that of ghrelin

# Same assay, conditions: chem-1 cells, Fluo-8 NW dye, duplicate; read-out: EC50, intracellular Ca2+ release
row,SMILES,EC50 [nM]
1,"NC(=O)[C@H](CCCCNC(=O)c1ccc(F)cc1)NC(=O)[C@H](Cc1cccc2ccccc12)NC(=O)[C@@H](Cc1ccc2ccccc2c1)NC(=O)[C@@H](Cc1ccc2ccccc2c1)NC(=O)C1CCNCC1 [MMF-01-115-H, H-Inp-D-2-Nal-D-2-Nal-1-Nal-Lys(4-FB)-NH2] (H-[Inp][d2Nal][d2Nal][1Nal]K(Benzoyl(4-F))-NH2)",1.1

# Test system: GH release
# Assay: not given
# Conditions: Elias et al., Endocrinology 1995, read-out: EC50, reported half-maximal effective concentration; cited from earlier work
row,SMILES,EC50 [nM]
1,"NCCCC[C@H](NC(=O)[C@H](Cc1ccccc1)NC(=O)[C@@H](Cc1ccc2ccccc2c1)NC(=O)[C@@H](Cc1ccc2ccccc2c1)NC(=O)C1CCNCC1)C(N)=O [Compound G-7039, H-Inp-D-2-Nal-D-2-Nal-Phe-Lys-NH2, reference compound] (H-[Inp][d2Nal][d2Nal]FK-NH2)",0.18
